Source: paper PMC11079064, “Discovery of a brain penetrant small molecule antagonist targeting LPA1 receptors to reduce neuroinflammation and promote remyelination in multiple sclerosis” (Scientific Reports, 2024)

Tests used:
[1] = system: MOG-EAE mouse model; assay: MOG-EAE mouse model, g-ratios by electron microscopy; format: in vivo
Description: In control, non-EAE mice, 90.9% of the axons were myelinated (g-ratio < 1). In vehicle treated MOG-EAE mice, only 73.4% of axons were myelinated.
Remyelinated axons canonically have thin myelin[41]. As such, we examined axons with g-ratios ≥ 0.8 but less than 1 as a surrogate measure of a remyelinating axon.
To confirm this, g-ratios in the optic nerve were similarly quantified. […] In non-MOG-EAE mice, 86.4% of the axons were myelinated. […] At 0.3 mg/kg, 85.5% were myelinated. When thinly myelinated axons were quantified, 30.2% in the MOG-treated vehicle group were observed, compared to 50.7% in the non-MOG control.
Study termination was the last day that clinical scores were determined for all study animals (Day 24). Since VEP recordings required several days (Days 21–24), oral dosing continued through perfusion, which was performed on Day 24 or Day 25. On Day 24 or 25, and following completion of VEP recordings, mice were deeply anesthetized with isoflurane anesthesia and whole body perfused with EM grade Karnovsky’s fixative (3% glutaraldehyde, 2% paraformaldehyde in 0.1 M phosphate buffer, pH 7.4; part # 15732-10; Electron Microscopy Sciences, Hatfield, PA). Spinal columns and optic nerves were collected and stored in fixative at 4 °C until further processing. After at 3–5 days in fixative, spinal cords were isolated and dissected from the vertebrae. Approximately 2 mm of the most caudal lumbar region was trimmed and segmented and, along with the optic nerves, shipped to Charles River Laboratories (Durham, NC) for processing for and imaging by electron microscopy.
The blocks were polymerized overnight at ~ 85 °C, and semi-thin sections (~ 1 μm, one per tissue) prepared and stained with toluidine blue using standard protocols. Semi-thin images were evaluated, and the most caudal region was identified as the region of focus for thin sections. Thin sections of ~ 100 nm were prepared using standard protocols and the grids were imaged at 1500 × on a JEOL JEM-1400 + transmission electron microscope fitted with an AMT 16 MP digital camera system. The direct magnification used was 1500 × or 4000 × for spinal cord and optic nerve, respectively.
Digital EM images were analyzed using ImageJ (NIH, Bethesda, MD) measure the circumference of the axon and, when present, the myelin sheath, and g-ratios were calculated. For spinal cord analysis, 4 representative images were analyzed per animal and the results pooled, and the percentages calculated from the animal total. For optic nerve analysis, 1 representative image was analyzed per optic nerve and each optic nerve was treated as a separate data point.

[2] = system: mouse cortical brain slices; assay: Lysolecithin-treated mouse organotypic slice culture, Mbp transcript; format: cell-based; details: lysolecithin 18 h, then 3 days treatment; read-out: EC50 of Mbp transcript increase
Description: We next used an ex vivo organotypic brain slice culture to assess remyelination following a demyelinating insult. Mouse cortical brain slices were treated with lysolecithin, which induces acute demyelination through a non-specific lipid-based mechanism. […] After 3 additional days, the brain slices were processed for Mbp.
Evaluation of Mbp transcript in mouse brain slice culture: Brains were collected from P17 mice and placed into ice cold HBSS containing 20% FBS. Brains were bisected sagittally and 250 µm coronal slices made with a manual tissue chopper. Only slices anterior to the hippocampus displaying a discrete corpus callosum were used. Approximately 12 slices are obtained per animal. Slices were laid on a 30 mm MilliCell organotypic culture insert in a 6-well culture dish containing 1.1 mL growth media (DMEM, 25% HBSS-Ca^2+/-Mg^2+, 25% heat inactivated horse serum, glucose (5 g/l), 25 mM ascorbic acid and penicillin/streptomycin). Slices were cultured in vitro for 72 h with a 50% media change at 24 h. After 72 h, slices were demyelinated using media containing 0.5 mg/ml lysolecithin for 18 h. […] Slices were snap frozen and RNA extracted using the RNEasy Mini kit (Qiagen). […] Data was calculated using 2^−ΔΔCt , normalizing to 18S RNA and vehicle.

[3] = system: rat brain meningeal fibroblasts; assay: LPA-induced activation of rat meningeal fibroblasts (COL1+ area); format: cell-based; details: LPA stimulation, read-out: IC50 of inhibition of increase in COL1+ area
Description: Recent work from Dorrier et al., has implicated persistent fibrotic scarring in the CNS in the mouse EAE model and that the contributing cells were of meningeal origin. […] We cultured primary rat or human brain meningeal fibroblasts and applied 10 µM LPA to induce activation. Upon LPA stimulation, we saw a change in morphology that could be quantified as a change in collagen I (COL1^+) area.
Meningeal fibroblasts were isolated from postnatal day 8 CD-1 rats (Charles River Labs, Willington, MA). Meninges were peeled off and digested in Accutase (Thermo Fisher, Waltham, MA, Waltham, MA) for 20 min at room temperature. […] was added to stop protease activity. Digested meninges were dissociated by trituration and cells were strained through a 40 µm nylon mesh and spun down at 800 g for 15 min. The cell pellet was resuspended in DMEM + 10% FBS and plated in a T-75 flask (Corning) for 10 days. Cells were lifted with Accutase and replated into 96-well Perkin Elmer, Boston, MA Viewplates, at 15k per well. The next day, cells were starved in DMEM for 8 h. […] 1 µM LPA or vehicle were added for 5 h. […] Primary antibody was detected using a goat-anti-mouse Alexa488 secondary antibody (Invitrogen, Carlsbad, CA, 1:250) with Hoechst. Wells were imaged on Nikon A1R confocal and Col1^+ area measured normalized to cell number (Hoechst count). […]

## COc1ccc(NC(=O)N(c2ccccc2C(C)C)C2CCC(C(=O)O)CC2)c(OC(F)F)n1 (stereo not drawn) [PIPE-791]
[1]; 0.3 mg/kg
  myelinated axons, optic nerve: 85.5%
  thinly myelinated axons, optic nerve: 44.7%
[1]; 3 mg/kg
  myelinated axons, optic nerve: 86.1%
  thinly myelinated axons, optic nerve: 50.6%
[2]
  EC50: 12.1 nM
[3]
  IC50: 31.8 nM
